Reference: publication PMC8151276, “An Integrated Approach toward NanoBRET Tracers for Analysis of GPCR Ligand Engagement” (Molecules, 2021)

Tests used:
P2RY8 = biological target: T1, P2RY8 (Homo sapiens, UniProt Q86VZ1); assay: NanoBRET screen HiBiT-P2RY8 in HEK293; type: binding; conditions: P2RY8
T1 construct: purchased Promega (in-house HiBiT-GPCR construct library, NanoBRET)
Procedure: (§1) Each tracer candidate was screened across the entire library of HiBiT-GPCR constructs using NanoBRET as the detection modality. As depicted in Figure 4A, the specificity of interactions was evaluated through decrease in BRET due to competitive displacement of a bound tracer by excess parental compound. Each tracer was analyzed for binding to each HiBiT-GPCR fusion in the absence and in the presence of competing parental compound. Briefly, HEK293 cells were transfected with HiBiT-GPCR constructs diluted into promoterless DNA to reduce expression and maximize translocation to the cell surface. Each tracer candidate was then screened at concentrations of 1 μM and 0.1 μM across cells expressing these fusions. Cells were treated for 1.5 h with tracer either alone or in the presence of 20 μM competing parental compound (i.e., control). BRET was measured upon addition of purified LgBiT and subsequent complementation with HiBiT genetically fused to a GPCR. The specificity of interactions was assessed through a decrease in BRET signal due to competitive displacement of the bound tracer. To further gauge the robustness of these interactions, the fold response over the control (i.e., BRETtracer/BRETcontrol) was calculated. We chose a 1.5-fold response, which translates to ≥7-fold signal over noise as the minimal threshold required to score an interaction as positive.
(§2) HiBiT-GPCR DNA constructs were diluted in 10 mM Tris pH 8 to a final concentration of 0.01 μg/μL, arrayed in 96-well plates and stored at −20 °C. For transfection, HEK293 cells were suspended in Opti-MEM (without phenol red) supplemented with 2% fetal bovine serum (Seradigm) and 100 units/mL penicillin–streptomycin (Gibco) at a final concentration of 220,000 cells/mL and dispensed into white 96-well plates at 90 μL/well. Subsequent transfections and screens were carried using an Agilent Bravo Automated Liquid Handling Platform. First, the 96-well HiBiT DNA arrays were diluted 25-fold in Opti-MEM (without serum or phenol red) to a final concentration of 0.0004 μg/μL and 20 μL of the diluted DNAs were transferred into new 96-well plates. Next, promoterless carrier DNA (1 μg/μL) was diluted 25-fold (0.04 μg/μL) and then dispensed into the diluted arrays at 20 μL/well. Following brief mixing, Viafect transfection reagent (Promega) diluted 16-fold into Opti-MEM was dispensed into the plates at 40 μL/well. After mixing by pipetting, plates were incubated for 10 min on the pipetting station deck. The DNA-transfection reagent complexes were then added to plates containing cells. To facilitate the screen, 10 μL of DNA-transfection reagent complexes were added in duplicates to the top 4 and bottom 4 rows, resulting in two identical 48-well arrays per plate. Plates with transfected cells were incubated for 18–20 h at 37 °C/5% CO2. A screen of each tracer across the entire library using two different concentrations requires duplicate plates of transfected cells. Depending on the number of tracers being screened, transfections can be scaled up using the same ratios. The next day, for each tracer, four 20× screening solutions in tracer dilution buffer (Promega) were prepared: two duplicates at final concentration of 20 μM and two duplicates at a final concentration of 2 μM. […] The four resulting solutions were diluted 4-fold in Opti-MEM without serum or phenol red to generate 5× solutions (5 µM and 0.5 µM tracer +/− 100 μM competing compound). To screen the library, a BioTek MultiFlo FX liquid dispenser was used to dispense 22.5 µL of tracer solution to the top 4 rows and 22.5 µL tracer + competing compound solution to the 4 bottom rows. Plates were briefly mixed on an orbital shaker and incubated for 1.5 h at room temperature. […] Plates were briefly mixed on an orbital shaker and incubated for 15 min to allow complementation.

NPY5R = biological target: T2, NPY5R (Homo sapiens, UniProt Q15761); assay: NanoBRET screen HiBiT-NPY5R in HEK293; type: binding; conditions: NPY5R
T2 construct: purchased Promega (in-house HiBiT-GPCR construct library, NanoBRET)
T2 sequence (Q15761 1-445): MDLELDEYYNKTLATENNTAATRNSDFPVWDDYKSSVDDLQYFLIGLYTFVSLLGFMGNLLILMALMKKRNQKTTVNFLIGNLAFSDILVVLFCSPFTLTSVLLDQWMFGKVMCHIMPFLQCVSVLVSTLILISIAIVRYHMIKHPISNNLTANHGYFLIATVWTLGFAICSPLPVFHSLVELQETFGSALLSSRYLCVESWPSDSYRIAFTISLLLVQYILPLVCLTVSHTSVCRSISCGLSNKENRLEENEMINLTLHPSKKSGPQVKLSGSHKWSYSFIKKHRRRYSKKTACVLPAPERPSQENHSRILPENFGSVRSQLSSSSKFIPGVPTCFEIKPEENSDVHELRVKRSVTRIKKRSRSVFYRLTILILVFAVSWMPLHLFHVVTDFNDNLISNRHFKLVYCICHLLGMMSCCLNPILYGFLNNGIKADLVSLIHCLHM
Procedure: as §1, §2

T1 sequence (Q86VZ1 whole entry): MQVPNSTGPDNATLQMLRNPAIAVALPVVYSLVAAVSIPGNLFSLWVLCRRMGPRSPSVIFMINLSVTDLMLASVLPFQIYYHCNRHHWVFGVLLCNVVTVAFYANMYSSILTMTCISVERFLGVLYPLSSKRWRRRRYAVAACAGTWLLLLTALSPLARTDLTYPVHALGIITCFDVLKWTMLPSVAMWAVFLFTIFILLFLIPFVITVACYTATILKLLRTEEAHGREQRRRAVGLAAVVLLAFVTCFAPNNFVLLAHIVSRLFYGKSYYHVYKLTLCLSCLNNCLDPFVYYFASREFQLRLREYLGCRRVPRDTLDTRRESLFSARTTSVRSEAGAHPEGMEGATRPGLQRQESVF

## CCCn1c(=O)c2[nH]c(-c3ccc(OCC(=O)NCCNC(=O)CCOCCNC(=O)c4ccc(CNC(=O)CCc5ccc6n5[B-](F)(F)[N+]5=C(c7ccc[nH]7)C=CC5=C6)cc4)cc3)nc2n(CCC)c1=O [XAC-3-NB590]
P2RY8; tracer 0.1μM
  NanoBRET Fold Response: 1.30
P2RY8; tracer 1μM
  NanoBRET Fold Response: 0.83
NPY5R; tracer 0.1μM
  NanoBRET Fold Response: 1.02
NPY5R; tracer 1μM
  NanoBRET Fold Response: 1.10
